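Briefly, cells in 96-well plates were exposed to five compound concentrations for 48 h, and endpoints were estimated by linear interpolation. TGI: concentration producing complete growth inhibition.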
Tests used:
Experiment in all cases: DTP human tumour cell line panel, 48 h
OVCAR-4 ovarian = test system: OVCAR-4 ovarian
HL-60(TB) leukemia = test system: HL-60(TB) leukemia
SK-MEL-5 melanoma = test system: SK-MEL-5 melanoma
T-47D breast = test system: T-47D breast
CCRF-CEM leukemia = test system: CCRF-CEM leukemia
OVCAR-5 ovarian = test system: OVCAR-5 ovarian
NCI-H226 lung = test system: NCI-H226 lung
SK-OV-3 ovarian = test system: SK-OV-3 ovarian
DU-145 prostate = test system: DU-145 prostate
SN12C renal = test system: SN12C renal
SK-MEL-28 melanoma = test system: SK-MEL-28 melanoma
MDA-MB-435 = test system: MDA-MB-435
UACC-62 melanoma = test system: UACC-62 melanoma
BT-549 breast = test system: BT-549 breast
SNB-75 CNS = test system: SNB-75 CNS
HOP-62 NSCLC = test system: HOP-62 NSCLC
MDA-N = test system: MDA-N
HCT-116 colon = test system: HCT-116 colon
NCI/ADR-RES ovarian = test system: NCI/ADR-RES ovarian
TK-10 renal = test system: TK-10 renal
UO-31 renal = test system: UO-31 renal
PC-3 prostate = test system: PC-3 prostate
HCT-15 colon = test system: HCT-15 colon
CAKI-1 renal = test system: CAKI-1 renal
MOLT-4 leukemia = test system: MOLT-4 leukemia
ACHN renal = test system: ACHN renal
K-562 leukemia = test system: K-562 leukemia
SF-295 CNS = test system: SF-295 CNS
M14 melanoma = test system: M14 melanoma
U251 CNS = test system: U251 CNS
LOX IMVI melanoma = test system: LOX IMVI melanoma
SK-MEL-2 melanoma = test system: SK-MEL-2 melanoma
SW-620 colon = test system: SW-620 colon
OVCAR-8 ovarian = test system: OVCAR-8 ovarian
RXF 393 renal = test system: RXF 393 renal
SR leukemia = test system: SR leukemia
786-0 renal = test system: 786-0 renal
MCF7 breast = test system: MCF7 breast
IGROV1 ovarian = test system: IGROV1 ovarian
OVCAR-3 ovarian = test system: OVCAR-3 ovarian
A498 renal = test system: A498 renal
NCI-H23 lung = test system: NCI-H23 lung
COLO 205 colon = test system: COLO 205 colon
KM12 colon = test system: KM12 colon
NCI-H460 lung = test system: NCI-H460 lung
SNB-19 CNS = test system: SNB-19 CNS
EKVX NSCLC = test system: EKVX NSCLC
HCC-2998 colon = test system: HCC-2998 colon
A549 NSCLC = test system: A549 NSCLC
UACC-257 melanoma = test system: UACC-257 melanoma
HOP-92 NSCLC = test system: HOP-92 NSCLC
RPMI-8226 leukemia = test system: RPMI-8226 leukemia
HS 578T breast = test system: HS 578T breast
HT29 colon = test system: HT29 colon
SF-268 CNS = test system: SF-268 CNS
SF-539 CNS = test system: SF-539 CNS
MALME-3M melanoma = test system: MALME-3M melanoma
MDA-MB-231 breast = test system: MDA-MB-231 breast

COc1ccc2nc3n(c2c1)C(c1c(Cl)cccc1Cl)SC3 (stereo unspecified)
TGI (OVCAR-4 ovarian): 65.9 µM | TGI (HL-60(TB) leukemia): > 100 µM | TGI (SK-MEL-5 melanoma): > 100 µM | TGI (T-47D breast): > 100 µM | TGI (CCRF-CEM leukemia): > 100 µM | TGI (OVCAR-5 ovarian): > 100 µM | TGI (NCI-H226 lung): > 100 µM | TGI (SK-OV-3 ovarian): > 100 µM | TGI (DU-145 prostate): > 100 µM | TGI (SN12C renal): > 100 µM | TGI (SK-MEL-28 melanoma): > 100 µM | TGI (MDA-MB-435): > 100 µM | TGI (UACC-62 melanoma): > 100 µM | TGI (BT-549 breast): > 100 µM | TGI (SNB-75 CNS): > 100 µM | TGI (HOP-62 NSCLC): > 100 µM | TGI (MDA-N): > 100 µM | TGI (HCT-116 colon): > 100 µM | TGI (NCI/ADR-RES ovarian): > 100 µM | TGI (TK-10 renal): > 100 µM | TGI (UO-31 renal): > 100 µM | TGI (PC-3 prostate): > 100 µM | TGI (HCT-15 colon): > 100 µM | TGI (CAKI-1 renal): > 100 µM | TGI (MOLT-4 leukemia): > 100 µM | TGI (ACHN renal): > 100 µM | TGI (K-562 leukemia): > 100 µM | TGI (SF-295 CNS): > 100 µM | TGI (M14 melanoma): > 100 µM | TGI (U251 CNS): > 100 µM | TGI (LOX IMVI melanoma): > 100 µM | TGI (SK-MEL-2 melanoma): > 100 µM | TGI (SW-620 colon): > 100 µM | TGI (OVCAR-8 ovarian): > 100 µM | TGI (RXF 393 renal): > 100 µM | TGI (SR leukemia): > 100 µM | TGI (786-0 renal): > 100 µM | TGI (MCF7 breast): > 100 µM | TGI (IGROV1 ovarian): > 100 µM | TGI (OVCAR-3 ovarian): > 100 µM | TGI (A498 renal): > 100 µM | TGI (NCI-H23 lung): > 100 µM | TGI (COLO 205 colon): > 100 µM | TGI (KM12 colon): > 100 µM | TGI (NCI-H460 lung): > 100 µM | TGI (SNB-19 CNS): > 100 µM | TGI (EKVX NSCLC): > 100 µM | TGI (HCC-2998 colon): > 100 µM | TGI (A549 NSCLC): > 100 µM | TGI (UACC-257 melanoma): > 100 µM | TGI (HOP-92 NSCLC): > 100 µM | TGI (RPMI-8226 leukemia): > 100 µM

Cc1ccc(-c2cc(-c3c(C)nn(C)c(=O)c3N)[nH]n2)cc1
TGI (OVCAR-4 ovarian): > 100 µM | TGI (HL-60(TB) leukemia): > 100 µM | TGI (SK-MEL-5 melanoma): > 100 µM | TGI (T-47D breast): > 100 µM | TGI (CCRF-CEM leukemia): > 100 µM | TGI (OVCAR-5 ovarian): > 100 µM | TGI (NCI-H226 lung): > 100 µM | TGI (SK-OV-3 ovarian): > 100 µM | TGI (DU-145 prostate): > 100 µM | TGI (SN12C renal): > 100 µM | TGI (SK-MEL-28 melanoma): > 100 µM | TGI (MDA-MB-435): > 100 µM | TGI (UACC-62 melanoma): > 100 µM | TGI (HS 578T breast): > 100 µM | TGI (MDA-N): > 100 µM | TGI (HCT-116 colon): > 100 µM | TGI (NCI/ADR-RES ovarian): > 100 µM | TGI (HT29 colon): > 100 µM | TGI (TK-10 renal): > 100 µM | TGI (PC-3 prostate): > 100 µM | TGI (HCT-15 colon): > 100 µM | TGI (SF-268 CNS): > 100 µM | TGI (SF-539 CNS): > 100 µM | TGI (CAKI-1 renal): > 100 µM | TGI (MOLT-4 leukemia): > 100 µM | TGI (ACHN renal): > 100 µM | TGI (K-562 leukemia): > 100 µM | TGI (SF-295 CNS): > 100 µM | TGI (M14 melanoma): > 100 µM | TGI (U251 CNS): > 100 µM | TGI (LOX IMVI melanoma): > 100 µM | TGI (SK-MEL-2 melanoma): > 100 µM | TGI (SW-620 colon): > 100 µM | TGI (MALME-3M melanoma): > 100 µM | TGI (MDA-MB-231 breast): > 100 µM | TGI (OVCAR-8 ovarian): > 100 µM | TGI (RXF 393 renal): > 100 µM | TGI (SR leukemia): > 100 µM | TGI (786-0 renal): > 100 µM | TGI (MCF7 breast): > 100 µM | TGI (IGROV1 ovarian): > 100 µM | TGI (OVCAR-3 ovarian): > 100 µM | TGI (A498 renal): > 100 µM | TGI (NCI-H23 lung): > 100 µM | TGI (COLO 205 colon): > 100 µM | TGI (KM12 colon): > 100 µM | TGI (NCI-H460 lung): > 100 µM | TGI (SNB-19 CNS): > 100 µM | TGI (EKVX NSCLC): > 100 µM | TGI (HCC-2998 colon): > 100 µM | TGI (A549 NSCLC): > 100 µM | TGI (UACC-257 melanoma): > 100 µM | TGI (HOP-92 NSCLC): > 100 µM | TGI (RPMI-8226 leukemia): > 100 µM

Reference: PubChem BioAssay (NCI)
